Among the test systems are A549 NSCLC; CCRF-CEM leukemia; COLO 205 colon; DU-145 prostate; HCT-15 colon; IGROV1 ovarian; NCI-H522 lung; NCI/ADR-RES ovarian; SK-MEL-5 melanoma; SR leukemia.
Holding throughout (assay): NCI anticancer screen, dose series, 48 h

Where “and” joins values, the source holds several entries; their conditions need not be identical. Identical values can stand only once.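 Step 1: Grow cells in 96-well plates. Step 2: Expose to compound for 48 hours at 5 concentrations. Step 3: Interpolate endpoints linearly; if unreached, use highest concentration. At the GI50, growth is halved. At the TGI there is no net growth.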

On to `C=C(CN1CCN(c2cccc(C(F)(F)F)c2)CC1)c1ccc(C(=O)Nc2ccccc2N)cc1`, for which the GI50 is 1.48 µM in the assay with A549 NSCLC; 0.335 µM in the assay on CCRF-CEM leukemia; 3.45 µM in the assay on COLO 205 colon; 1.36 µM in the assay with DU-145 prostate; 0.48 µM in the assay with HCT-15 colon; 14.2 µM in the assay on IGROV1 ovarian. In addition, the GI50 in the assay with NCI-H522 lung was 6.14 µM; in the assay with NCI/ADR-RES ovarian, 2.34 µM; in the assay on SK-MEL-5 melanoma, 0.568 µM; with SR leukemia it was 0.0568 µM. Besides, the TGI in the assay with A549 NSCLC is over 27.3 µM; in the assay on CCRF-CEM leukemia, over 50 µM; in the assay on COLO 205 colon, over 23 µM; with DU-145 prostate it was 7.23 µM; with HCT-15 colon it was 3.62 µM; in the assay with IGROV1 ovarian, over 50 µM. Further, the TGI in the assay with NCI-H522 lung was over 16.1 µM; with NCI/ADR-RES ovarian, over 50 µM; in the assay on SK-MEL-5 melanoma, 6.72 µM; in the assay with SR leukemia it was over 50 µM.

With `C/C=C(\C)C(=O)O[C@@H]1C(O)[C@H]2OC(COC(=O)CCC(=O)CCCCCC[C@H](CCCCC)O[C@@H]3OC(C)[C@H](OC(C)=O)C(O)[C@H]3O2)[C@H]1OC(=O)/C=C/c1ccccc1` (stereo partly drawn), the GI50 is under 0.01 µM in the assay on A549 NSCLC; 0.408 µM in the assay on CCRF-CEM leukemia; under 0.01 µM with COLO 205 colon; 0.0201 µM with DU-145 prostate; 0.034 µM in the assay on HCT-15 colon; under 0.0163 µM in the assay on IGROV1 ovarian. The GI50 in the assay on NCI-H522 lung was 0.0265 µM; in the assay with NCI/ADR-RES ovarian, 0.336 µM; in the assay on SK-MEL-5 melanoma it was under 0.01 µM; in the assay with SR leukemia it was under 0.012 µM. In addition, the TGI in the assay with A549 NSCLC is 32.3 µM; in the assay with CCRF-CEM leukemia, over 100 µM; with COLO 205 colon, 1.79 µM; in the assay on DU-145 prostate, over 44.2 µM; with HCT-15 colon, over 100 µM; in the assay on IGROV1 ovarian, 17.9 µM. The TGI in the assay with NCI-H522 lung was 2.29 µM; with NCI/ADR-RES ovarian it was over 100 µM; in the assay on SR leukemia, 3.18 µM.

For `CCCCn1c2c(c3ccccc3c1=O)C(=O)c1ccccc1-2`, the TGI in the assay with A549 NSCLC, in the assay on CCRF-CEM leukemia, in the assay with COLO 205 colon, in the assay on DU-145 prostate, in the assay on HCT-15 colon and with IGROV1 ovarian was over 100 µM throughout. Also, the TGI in the assay on NCI-H522 lung, in the assay on NCI/ADR-RES ovarian, in the assay on SK-MEL-5 melanoma and in the assay on SR leukemia was over 100 µM throughout.

In the case of `Cc1cc(=O)oc2cc(OC(=O)Nc3ccc(Cl)c(Cl)c3)ccc12`, the TGI was 82.1 µM in the assay on A549 NSCLC; 51.6 µM in the assay with CCRF-CEM leukemia; 96.5 µM in the assay with COLO 205 colon; 90.5 µM in the assay on DU-145 prostate; over 100 µM in the assay with HCT-15 colon; 60.5 µM in the assay on IGROV1 ovarian. Besides, the TGI in the assay on NCI-H522 lung was 54.4 µM; in the assay on NCI/ADR-RES ovarian, over 100 µM; in the assay with SK-MEL-5 melanoma, 29.7 µM; with SR leukemia, 46.3 µM.

`C=C1C(=O)O[C@H]2[C@H]1CC/C(COC(=O)C(=O)c1c[nH]c3ccc(OC)cc13)=C\CC[C@@]1(C)O[C@@H]21`: the GI50 in the assay on A549 NSCLC is 8.64 µM; in the assay with CCRF-CEM leukemia it was 2.47 µM; with DU-145 prostate it was 7.99 µM; in the assay on HCT-15 colon, 3.77 µM; in the assay on IGROV1 ovarian it was 3.22 µM; with NCI-H522 lung, 5.34 µM. Besides, the figures for the GI50 in the assay with NCI/ADR-RES ovarian, with SK-MEL-5 melanoma and in the assay with SR leukemia were 9.53 µM, 5.48 µM and 3.29 µM, respectively. The TGI is 17.3 µM in the assay with A549 NSCLC; 23 µM in the assay with CCRF-CEM leukemia; over 20.6 µM in the assay on COLO 205 colon; 17 µM with DU-145 prostate; 7.82 µM with HCT-15 colon; 7.64 µM with IGROV1 ovarian. For the same compound, the TGI with NCI-H522 lung was found to be 9.31 µM; with NCI/ADR-RES ovarian, 29.6 µM; in the assay on SK-MEL-5 melanoma, 8.72 µM; in the assay with SR leukemia, 29 µM.

For the compound `COc1c2ccccc2c(O)c2c(=O)c(C(=O)O)cn(C)c12`, the GI50 in the assay with A549 NSCLC, in the assay on CCRF-CEM leukemia, in the assay with COLO 205 colon, in the assay on DU-145 prostate, in the assay on HCT-15 colon and with IGROV1 ovarian was over 100 µM throughout. Moreover, the GI50 in the assay with NCI-H522 lung, in the assay on NCI/ADR-RES ovarian, with SK-MEL-5 melanoma and with SR leukemia was over 100 µM throughout. The TGI in the assay with A549 NSCLC, in the assay with CCRF-CEM leukemia, in the assay with COLO 205 colon, in the assay with DU-145 prostate, in the assay with HCT-15 colon and with IGROV1 ovarian was over 100 µM throughout. Besides, the TGI in the assay with NCI-H522 lung, in the assay with NCI/ADR-RES ovarian, in the assay on SK-MEL-5 melanoma and with SR leukemia was over 100 µM throughout.

As for `CN(C)CCNC(=O)c1cccc2cc3ccccc3nc12`, the GI50 was 1.37 µM in the assay on CCRF-CEM leukemia; 0.779 µM in the assay on COLO 205 colon; 1.8 µM in the assay on DU-145 prostate; 1.25 µM with HCT-15 colon; 1.47 µM in the assay on IGROV1 ovarian; 1.32 µM in the assay with NCI-H522 lung. The GI50 with NCI/ADR-RES ovarian was 1.55 µM; with SK-MEL-5 melanoma, 1.25 µM; with SR leukemia, 0.338 µM. Moreover, the TGI was over 32.1 µM with CCRF-CEM leukemia; 3.55 µM with COLO 205 colon; 4.37 µM in the assay with DU-145 prostate; over 22 µM in the assay on IGROV1 ovarian; 3.12 µM in the assay with NCI-H522 lung; 5.83 µM with NCI/ADR-RES ovarian. For the same compound, the TGI in the assay on SK-MEL-5 melanoma was determined as 2.54 µM; in the assay on SR leukemia, 8.1 µM.

In the case of `CO[C@H]1[C@H](O)[C@H](O[C@H]2CC[C@@]3(C)[C@H](CC[C@@H]4[C@@H]3CC[C@]3(C)[C@@H](C5=CC(=O)OC5)CC[C@]43O)C2)O[C@@H](C)[C@@H]1O`, the TGI is 0.00078 µM with A549 NSCLC; 0.00107 µM in the assay with CCRF-CEM leukemia; 0.00509 µM and 0.0316 µM in the assay on COLO 205 colon; under 0.0001 µM in the assay on DU-145 prostate; 0.00255 µM and < 0.0124 µM in the assay on HCT-15 colon; 0.000282 µM with NCI-H522 lung. The TGI in the assay on NCI/ADR-RES ovarian was 0.00115 µM; in the assay with SK-MEL-5 melanoma it was 0.00194 µM; in the assay with SR leukemia it was 0.0273 µM. Also, the values for the GI50 with CCRF-CEM leukemia and in the assay on SR leukemia were 0.000406 µM and under 0.0001 µM, respectively.

With `COC(=O)c1c2c(c(C)[n+]([O-])c1C)C(=O)C=C(NCc1cccc(OC)c1)C2=O`, the GI50 in the assay on CCRF-CEM leukemia was 0.471 µM; with COLO 205 colon it was 0.293 µM; with DU-145 prostate, 1.06 µM; in the assay on HCT-15 colon, 0.331 µM; in the assay on IGROV1 ovarian, 0.579 µM; in the assay on NCI-H522 lung, 0.429 µM. Also, the GI50 in the assay with NCI/ADR-RES ovarian was 0.441 µM; in the assay with SK-MEL-5 melanoma it was 0.171 µM; with SR leukemia it was 0.561 µM. Moreover, the TGI is 0.928 µM in the assay with COLO 205 colon; 2.29 µM in the assay with DU-145 prostate; 1.61 µM in the assay on HCT-15 colon; 2.18 µM in the assay with IGROV1 ovarian; 2.24 µM in the assay with NCI-H522 lung; 3.15 µM with NCI/ADR-RES ovarian. Also, the TGI with SK-MEL-5 melanoma stood at 0.334 µM; with SR leukemia, 8.11 µM.

The values are drawn from PubChem BioAssay (NCI).
